# From ChEMBL document CHEMBL1201862, “PubChem BioAssay data set” (2004)
# Structures can show the parent of a compound that is named as a salt. Activity calls are given as the source filed them.
# Key:
# [1] = target: Mitogen-activated protein kinase 10 (Homo sapiens, UniProt P53779); assay: Dose response biochemical screening assay for inhibitors of c-Jun N-Terminal Kinase 3 (JNK3). [Related pubchem assays: 746 ]
# Vero [2] = assay: inhibition of WNV-induced cytopathic effect – cell-based, CPE readout (AID 1621); assay type: functional; details: Chlorocebus sabaeus
# Phospholipase A2 = Phospholipase A2 (Homo sapiens, UniProt P04054); assay type: functional;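 further: confirmatory dose-response counterscreen on phospholipase A2, testing hits that came from an ultra-high-throughput screen for ATG4B inhibitors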
# Chain of Phospholipase A2 (P04054 whole entry): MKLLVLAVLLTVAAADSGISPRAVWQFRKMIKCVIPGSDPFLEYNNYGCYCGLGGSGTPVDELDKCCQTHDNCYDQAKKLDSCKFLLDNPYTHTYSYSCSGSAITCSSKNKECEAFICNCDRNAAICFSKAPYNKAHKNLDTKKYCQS
# [3] = target: T1, Histone-lysine N-methyltransferase NSD2 (Homo sapiens, UniProt O96028); assay type: biochemical
# T1 sequence (O96028 whole entry): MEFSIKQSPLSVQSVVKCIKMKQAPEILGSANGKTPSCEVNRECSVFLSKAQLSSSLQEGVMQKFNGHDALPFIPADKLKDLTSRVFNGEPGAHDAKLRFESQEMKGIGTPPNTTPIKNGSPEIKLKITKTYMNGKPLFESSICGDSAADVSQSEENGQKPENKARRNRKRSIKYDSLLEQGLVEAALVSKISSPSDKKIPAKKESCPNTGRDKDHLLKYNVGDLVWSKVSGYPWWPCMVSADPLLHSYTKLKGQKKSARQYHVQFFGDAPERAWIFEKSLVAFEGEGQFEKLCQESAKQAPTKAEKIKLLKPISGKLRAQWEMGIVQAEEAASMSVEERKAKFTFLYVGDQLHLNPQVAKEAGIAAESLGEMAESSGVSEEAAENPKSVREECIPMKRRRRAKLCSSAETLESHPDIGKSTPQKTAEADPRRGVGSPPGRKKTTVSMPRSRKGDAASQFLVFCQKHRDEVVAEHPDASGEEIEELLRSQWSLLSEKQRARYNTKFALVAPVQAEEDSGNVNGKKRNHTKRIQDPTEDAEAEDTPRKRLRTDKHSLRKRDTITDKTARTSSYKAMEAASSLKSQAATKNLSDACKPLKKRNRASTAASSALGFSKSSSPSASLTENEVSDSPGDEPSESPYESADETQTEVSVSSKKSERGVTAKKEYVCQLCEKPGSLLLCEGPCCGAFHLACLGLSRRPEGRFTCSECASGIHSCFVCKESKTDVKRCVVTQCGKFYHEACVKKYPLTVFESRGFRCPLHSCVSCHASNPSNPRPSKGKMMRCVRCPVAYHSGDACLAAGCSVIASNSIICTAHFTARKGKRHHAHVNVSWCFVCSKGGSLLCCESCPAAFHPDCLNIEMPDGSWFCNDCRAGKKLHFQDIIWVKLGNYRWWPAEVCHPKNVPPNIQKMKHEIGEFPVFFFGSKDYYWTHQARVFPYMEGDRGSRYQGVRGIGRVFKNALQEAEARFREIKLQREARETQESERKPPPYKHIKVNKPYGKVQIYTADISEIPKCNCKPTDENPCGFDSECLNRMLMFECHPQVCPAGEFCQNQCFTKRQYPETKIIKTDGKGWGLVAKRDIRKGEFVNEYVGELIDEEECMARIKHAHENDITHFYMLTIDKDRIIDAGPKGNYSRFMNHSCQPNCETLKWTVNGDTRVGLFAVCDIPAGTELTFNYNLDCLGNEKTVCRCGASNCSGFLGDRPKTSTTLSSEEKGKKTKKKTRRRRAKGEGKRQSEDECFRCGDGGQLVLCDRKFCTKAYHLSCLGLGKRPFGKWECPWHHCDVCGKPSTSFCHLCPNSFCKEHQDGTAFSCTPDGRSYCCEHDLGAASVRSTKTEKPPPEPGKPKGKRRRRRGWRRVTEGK
# Cysteine protease ATG4B = target: T2, Cysteine protease ATG4B (Homo sapiens, UniProt Q9Y4P1); assay type: functional;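 further: Fluorescence-based dose-response confirmation assay measuring inhibition of ATG4B activity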
# T2 sequence (Q9Y4P1 whole entry): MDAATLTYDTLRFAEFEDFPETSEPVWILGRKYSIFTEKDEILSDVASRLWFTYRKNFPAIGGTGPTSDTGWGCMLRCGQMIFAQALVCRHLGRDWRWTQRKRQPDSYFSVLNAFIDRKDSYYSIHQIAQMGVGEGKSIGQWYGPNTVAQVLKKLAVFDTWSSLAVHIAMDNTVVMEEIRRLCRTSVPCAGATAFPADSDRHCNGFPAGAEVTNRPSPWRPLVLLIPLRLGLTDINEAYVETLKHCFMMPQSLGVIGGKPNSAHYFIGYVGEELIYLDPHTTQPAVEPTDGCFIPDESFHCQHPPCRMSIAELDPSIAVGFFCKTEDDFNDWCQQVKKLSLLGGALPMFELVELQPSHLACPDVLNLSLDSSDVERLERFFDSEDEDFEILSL
# [4] = target: Dual specificity tyrosine-phosphorylation-regulated kinase 1A (Rattus norvegicus, UniProt Q63470); assay type: biochemical, Homo sapiens
# Vero [5] = assay: viability of Vero cells under compound – cytotoxicity control for flavivirus capping enzyme inhibitors (AID 588742); assay type: functional; details: Chlorocebus sabaeus
# Genome polyprotein = Genome polyprotein (dengue virus type 2, UniProt P29990); assay: flavivirus cap methylation enzyme inhibition – biochemical, confirmation dose response, primary screen (AID 588689); assay type: functional
# [6] = target: T3, Long-chain-fatty-acid--AMP ligase FadD28 (Mycobacterium tuberculosis, UniProt P9WQ59); assay: Fluorescence polarization aasay to screen for inhibitors that compete for the binding of FadD28 to a bisubstrate Measured in Biochemical System Using Plate Reader - 2147-01_Inhibitor_Dose_CherryPick_Activity.; assay type: functional, Mycobacterium tuberculosis H37Rv
# T3 sequence (P9WQ59 whole entry): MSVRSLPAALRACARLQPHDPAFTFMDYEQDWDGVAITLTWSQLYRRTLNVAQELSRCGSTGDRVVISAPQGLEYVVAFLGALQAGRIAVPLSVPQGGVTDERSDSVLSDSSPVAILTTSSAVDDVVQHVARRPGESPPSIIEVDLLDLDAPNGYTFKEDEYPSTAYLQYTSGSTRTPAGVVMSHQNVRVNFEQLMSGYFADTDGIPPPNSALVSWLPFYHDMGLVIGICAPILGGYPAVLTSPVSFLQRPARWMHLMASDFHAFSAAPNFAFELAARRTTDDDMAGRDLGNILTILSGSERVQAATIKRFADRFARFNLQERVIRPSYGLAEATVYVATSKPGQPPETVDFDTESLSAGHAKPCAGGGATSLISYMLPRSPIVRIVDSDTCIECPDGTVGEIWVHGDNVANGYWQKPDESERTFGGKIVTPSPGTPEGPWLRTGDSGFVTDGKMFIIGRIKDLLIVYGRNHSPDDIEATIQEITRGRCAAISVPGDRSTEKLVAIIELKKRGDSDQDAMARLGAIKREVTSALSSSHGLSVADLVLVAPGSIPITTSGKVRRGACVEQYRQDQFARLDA
# [7] = viability loss in THP-1 monocytes – THP-1 cells, cytotoxicity control for Vif-APOBEC3G degradation inhibitor project, dose response (AID 1117359); assay type: functional; details: THP-1
# [8] = target: T4, Tyrosyl-DNA phosphodiesterase 2 (Homo sapiens, UniProt O95551); assay: potency against TDP2 phosphodiesterase activity – biochemical, epi absorbance, IC50, dose response (AID 743297)
# T4 sequence (O95551 whole entry): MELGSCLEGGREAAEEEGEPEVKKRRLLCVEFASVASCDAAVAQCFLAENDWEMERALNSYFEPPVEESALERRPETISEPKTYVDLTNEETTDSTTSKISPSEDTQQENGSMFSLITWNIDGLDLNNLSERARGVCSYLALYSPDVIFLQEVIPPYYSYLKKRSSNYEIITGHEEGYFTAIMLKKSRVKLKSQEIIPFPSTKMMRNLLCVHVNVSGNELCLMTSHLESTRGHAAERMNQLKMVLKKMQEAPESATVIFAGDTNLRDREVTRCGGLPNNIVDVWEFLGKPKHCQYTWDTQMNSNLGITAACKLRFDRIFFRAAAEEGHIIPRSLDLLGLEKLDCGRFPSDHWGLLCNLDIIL
# [9] = target: Glutathione-S-transferase (Schistosoma japonicum, UniProt Q26513); assay: GST-antibody interaction or FRET quenching – biochemical, TR-FRET, artefact control for Vif-APOBEC3G degradation inhibitor project, dose response (AID 1117362); assay type: functional
# Chain of Glutathione-S-transferase (Q26513 whole entry): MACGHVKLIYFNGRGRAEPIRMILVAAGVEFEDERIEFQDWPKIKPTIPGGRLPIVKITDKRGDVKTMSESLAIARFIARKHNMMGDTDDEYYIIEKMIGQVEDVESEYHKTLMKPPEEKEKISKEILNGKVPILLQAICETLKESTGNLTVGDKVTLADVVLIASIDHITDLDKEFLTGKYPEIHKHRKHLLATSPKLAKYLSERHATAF
# [10] = target: Aryl hydrocarbon receptor (Homo sapiens, UniProt P35869); assay: Luminescence-based cell-based high throughput dose response assay for activators of the Aryl Hydrocarbon Receptor (AHR). [Related pubchem assays: 2796 (Primary screen (AHR activators in singlicate)), 2845 (Confirmation screen (AHR activators in triplicate)), 434939 (Counterscreen (PXR activators in triplicate)), 2804 (Summary (AHR activators))]; assay type: ADME
# Chain of Aryl hydrocarbon receptor (P35869 whole entry): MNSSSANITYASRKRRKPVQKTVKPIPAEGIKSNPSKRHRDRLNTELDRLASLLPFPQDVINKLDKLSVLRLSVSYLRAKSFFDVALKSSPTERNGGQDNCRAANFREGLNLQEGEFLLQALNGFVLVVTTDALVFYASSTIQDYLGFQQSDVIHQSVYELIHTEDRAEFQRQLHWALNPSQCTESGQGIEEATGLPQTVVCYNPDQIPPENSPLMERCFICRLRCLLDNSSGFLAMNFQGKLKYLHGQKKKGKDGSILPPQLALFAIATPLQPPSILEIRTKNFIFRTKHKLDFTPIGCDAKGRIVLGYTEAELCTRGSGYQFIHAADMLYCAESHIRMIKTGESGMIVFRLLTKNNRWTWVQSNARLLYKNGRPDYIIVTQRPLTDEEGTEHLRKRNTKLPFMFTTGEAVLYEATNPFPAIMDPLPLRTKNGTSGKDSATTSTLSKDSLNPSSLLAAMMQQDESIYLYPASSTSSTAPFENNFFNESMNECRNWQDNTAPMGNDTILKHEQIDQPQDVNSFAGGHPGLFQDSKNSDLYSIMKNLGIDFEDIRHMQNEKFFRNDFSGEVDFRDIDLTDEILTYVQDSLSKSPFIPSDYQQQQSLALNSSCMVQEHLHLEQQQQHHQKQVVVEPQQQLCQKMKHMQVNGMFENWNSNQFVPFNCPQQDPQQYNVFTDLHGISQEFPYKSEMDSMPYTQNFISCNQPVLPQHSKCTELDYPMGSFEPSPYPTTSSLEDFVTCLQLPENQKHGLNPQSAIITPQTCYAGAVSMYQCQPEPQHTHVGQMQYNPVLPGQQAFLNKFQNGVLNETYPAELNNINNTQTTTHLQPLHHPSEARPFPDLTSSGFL
# Cytochrome P450 2C19 = Cytochrome P450 2C19 (Homo sapiens, UniProt P33261); assay: qHTS Assay for Inhibitors and Substrates of Cytochrome P450 2C19. [Related pubchem assays: 410 ]; assay type: ADME; details: read-out: Potency
# [11] = IC50 of insulin release inhibition, rat insulinoma INS-1E line, 5 mM glucose, cell-based (AID 1117331); assay type: functional
# cells [12] = assay type: functional, cell-based; details: INS-1E
# [13] = target: Peroxisome proliferator-activated receptor gamma/Nuclear receptor corepressor 2 (Homo sapiens, UniProt P37231+Q9Y618); assay: Counterscreen for NR2E3 inverse agonists: TR-FRET-based biochemical high throughput dose response assay to identify inverse agonists of the interaction between peroxisome proliferator-activated receptor gamma (PPARg) and nuclear receptor co-repressor 2 (NCOR2).; assay type: functional
# Chain of Peroxisome proliferator-activated receptor gamma/Nuclear receptor corepressor 2 (P37231 whole entry): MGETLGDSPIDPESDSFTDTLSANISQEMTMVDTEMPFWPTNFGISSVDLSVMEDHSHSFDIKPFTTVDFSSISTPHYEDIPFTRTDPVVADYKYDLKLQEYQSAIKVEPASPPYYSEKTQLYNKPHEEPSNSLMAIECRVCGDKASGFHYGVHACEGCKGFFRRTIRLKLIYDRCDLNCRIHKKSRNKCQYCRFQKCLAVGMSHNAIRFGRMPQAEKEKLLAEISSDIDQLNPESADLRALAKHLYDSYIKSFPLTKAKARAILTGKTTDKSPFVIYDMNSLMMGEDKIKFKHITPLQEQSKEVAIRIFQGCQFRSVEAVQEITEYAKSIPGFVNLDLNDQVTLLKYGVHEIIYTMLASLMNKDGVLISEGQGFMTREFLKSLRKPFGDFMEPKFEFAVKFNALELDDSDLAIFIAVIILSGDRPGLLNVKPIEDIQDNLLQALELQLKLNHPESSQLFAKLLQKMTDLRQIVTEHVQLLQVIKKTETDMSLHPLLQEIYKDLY
# Chain of Peroxisome proliferator-activated receptor gamma/Nuclear receptor corepressor 2 (Q9Y618 whole entry): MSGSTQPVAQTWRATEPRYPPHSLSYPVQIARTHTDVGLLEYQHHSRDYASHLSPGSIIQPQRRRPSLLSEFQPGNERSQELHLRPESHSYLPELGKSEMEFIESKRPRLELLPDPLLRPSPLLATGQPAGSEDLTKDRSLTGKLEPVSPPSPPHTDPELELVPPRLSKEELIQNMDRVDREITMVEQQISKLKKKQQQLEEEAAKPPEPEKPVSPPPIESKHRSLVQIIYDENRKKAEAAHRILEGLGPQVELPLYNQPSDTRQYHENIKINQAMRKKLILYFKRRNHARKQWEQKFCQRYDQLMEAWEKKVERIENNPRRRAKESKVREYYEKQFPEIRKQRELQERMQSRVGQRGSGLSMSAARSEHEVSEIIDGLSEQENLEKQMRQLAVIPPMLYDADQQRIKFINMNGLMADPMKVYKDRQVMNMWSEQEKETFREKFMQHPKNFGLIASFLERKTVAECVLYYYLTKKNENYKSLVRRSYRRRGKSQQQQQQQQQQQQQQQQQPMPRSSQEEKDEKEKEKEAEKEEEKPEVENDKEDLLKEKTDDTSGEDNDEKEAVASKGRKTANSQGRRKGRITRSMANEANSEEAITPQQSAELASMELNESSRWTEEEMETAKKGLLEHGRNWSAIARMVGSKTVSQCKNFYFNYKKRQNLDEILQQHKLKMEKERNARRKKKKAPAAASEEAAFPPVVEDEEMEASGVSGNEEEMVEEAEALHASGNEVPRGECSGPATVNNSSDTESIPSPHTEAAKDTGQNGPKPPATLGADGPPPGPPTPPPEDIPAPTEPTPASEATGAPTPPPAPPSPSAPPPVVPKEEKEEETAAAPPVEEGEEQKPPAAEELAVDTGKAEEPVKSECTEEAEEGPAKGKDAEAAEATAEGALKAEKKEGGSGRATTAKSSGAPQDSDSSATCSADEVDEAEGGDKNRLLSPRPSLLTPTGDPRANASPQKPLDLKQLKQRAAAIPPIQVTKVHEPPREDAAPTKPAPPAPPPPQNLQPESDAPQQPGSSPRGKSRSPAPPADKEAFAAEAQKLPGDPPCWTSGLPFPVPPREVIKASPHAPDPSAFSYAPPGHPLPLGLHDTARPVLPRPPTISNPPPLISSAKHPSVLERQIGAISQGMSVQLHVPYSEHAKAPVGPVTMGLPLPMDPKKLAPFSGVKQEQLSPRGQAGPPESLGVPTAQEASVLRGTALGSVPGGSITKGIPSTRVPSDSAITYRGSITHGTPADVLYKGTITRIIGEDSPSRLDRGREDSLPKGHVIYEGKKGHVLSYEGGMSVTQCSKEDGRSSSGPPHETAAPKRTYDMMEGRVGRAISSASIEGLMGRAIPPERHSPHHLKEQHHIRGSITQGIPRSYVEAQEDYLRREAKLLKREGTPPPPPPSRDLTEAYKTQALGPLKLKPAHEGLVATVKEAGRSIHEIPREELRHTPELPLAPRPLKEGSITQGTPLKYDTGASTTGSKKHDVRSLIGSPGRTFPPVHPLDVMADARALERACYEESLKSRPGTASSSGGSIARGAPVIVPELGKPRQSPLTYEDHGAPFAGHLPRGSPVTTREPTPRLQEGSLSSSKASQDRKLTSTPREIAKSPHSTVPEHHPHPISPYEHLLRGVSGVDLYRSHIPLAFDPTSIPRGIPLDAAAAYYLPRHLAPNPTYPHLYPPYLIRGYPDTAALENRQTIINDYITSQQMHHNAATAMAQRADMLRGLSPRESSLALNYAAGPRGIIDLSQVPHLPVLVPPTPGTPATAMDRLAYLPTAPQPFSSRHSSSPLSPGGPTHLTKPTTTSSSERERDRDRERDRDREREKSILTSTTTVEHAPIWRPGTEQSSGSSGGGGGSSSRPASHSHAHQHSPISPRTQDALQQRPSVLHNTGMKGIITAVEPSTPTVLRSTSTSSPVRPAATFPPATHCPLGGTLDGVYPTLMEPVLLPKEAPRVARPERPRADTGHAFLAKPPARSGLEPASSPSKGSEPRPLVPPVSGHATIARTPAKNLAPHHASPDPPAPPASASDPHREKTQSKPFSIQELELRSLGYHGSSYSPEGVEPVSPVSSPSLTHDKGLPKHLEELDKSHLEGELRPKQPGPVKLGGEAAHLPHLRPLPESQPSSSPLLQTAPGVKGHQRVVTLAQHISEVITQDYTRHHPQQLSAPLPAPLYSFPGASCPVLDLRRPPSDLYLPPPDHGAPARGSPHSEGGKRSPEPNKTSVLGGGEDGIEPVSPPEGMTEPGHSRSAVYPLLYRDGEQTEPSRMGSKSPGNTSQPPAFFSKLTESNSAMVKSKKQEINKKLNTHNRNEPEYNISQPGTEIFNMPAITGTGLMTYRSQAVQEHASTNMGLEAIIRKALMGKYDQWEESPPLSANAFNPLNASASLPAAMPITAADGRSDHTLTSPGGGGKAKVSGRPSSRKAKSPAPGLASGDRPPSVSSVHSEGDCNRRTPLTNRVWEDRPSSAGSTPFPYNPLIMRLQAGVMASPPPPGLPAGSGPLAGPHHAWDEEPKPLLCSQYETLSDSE
# [14] = target: Photoreceptor-specific nuclear receptor (Homo sapiens, UniProt Q9Y5X4); assay: ligands suppressing NR2E3 nuclear receptor activity – biochemical, TR-FRET, dose response (AID 463256); assay type: functional
# Chain of Photoreceptor-specific nuclear receptor (Q9Y5X4 whole entry): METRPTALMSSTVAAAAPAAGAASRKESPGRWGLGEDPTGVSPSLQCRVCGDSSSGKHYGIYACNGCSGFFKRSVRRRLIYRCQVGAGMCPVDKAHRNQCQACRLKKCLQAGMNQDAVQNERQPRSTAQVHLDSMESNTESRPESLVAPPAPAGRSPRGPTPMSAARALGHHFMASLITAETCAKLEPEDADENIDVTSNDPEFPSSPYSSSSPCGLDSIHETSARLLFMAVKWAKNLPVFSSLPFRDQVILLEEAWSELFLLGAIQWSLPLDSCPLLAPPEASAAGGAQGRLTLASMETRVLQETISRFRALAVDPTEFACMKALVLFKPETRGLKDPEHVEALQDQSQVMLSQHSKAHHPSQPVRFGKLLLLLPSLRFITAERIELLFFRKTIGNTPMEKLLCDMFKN
# [15] = M. tuberculosis growth inhibition, HTS (AID 449762); assay type: functional
# [16] = Luminescence Cell-Based Dose Response HTS to Identify Activators of Luciferase Translation or Activity in H4 […] Cells. [Related pubchem assays: 1829 (Project Summary), 1814 (Primary HTS)]; assay type: functional
# [17] = target: Heat shock protein HSP 90-alpha (Homo sapiens, UniProt P07900); assay: Luminescence-based dose response biochemical high throughput screening assay for inhibitors of the Heat Shock Protein 90 (HSP90). [Related pubchem assays: 1831 (Summary AID.), 1846 (Confirmation screen.), 1789 (Primary screen.)]
# [18] = Luminescence Cell-Based Dose Confirmation HTS to Identify Activators of 5'UTR Stem-Loop Driven Alpha-Synuclein mRNA Translation in H4 Neuroglioblastoma Cells. [Related pubchem assays: 1829 (Project Summary), 1814 (Primary HTS)]; assay type: functional
# H4 = assay: Luminescence Cell-Based Dose Response HTS to Identify Activators of 5'UTR Stem-Loop Driven Prion Protein mRNA Translation in H4 Neuroglioblastoma Cells. [Related pubchem assays: 1829 (Project Summary), 1814 (Primary HTS)]; assay type: functional; details: Homo sapiens
# cells [19] = details: HEK293
# [20] = toxicity to A549 lung cells – cell-based, plate reader, dry powder, set 6, cytotoxicity control, dose response (AID 743312); assay type: functional
# [21] = toxicity to HepG2 liver cells – cell-based, plate reader, dry powder, set 6, cytotoxicity control, dose response (AID 743311); assay type: functional
# [22] = cytotoxicity toward Colo320 cells – cell-based, CellTiter-Glo luminescence, IC50, dose response (AID 1117334); assay type: functional; details: COLO 320
# [23] = cytotoxicity toward HT-29 cells – cell-based, CellTiter-Glo luminescence, IC50, dose response (AID 1117330); assay type: functional
# [24] = HCT116 cell viability decrease, GSK3B pretreatment – CellTiter-Glo, IC50, dose response (AID 1117339); assay type: functional; details: HCT-116
# [25] = RKO cell viability reduction, dose response, CellTiter-Glo luminescence (AID 1117322); assay type: functional
# [26] = SNU-C1 cell viability reduction, dose response, CellTiter-Glo luminescence (AID 1117323); assay type: functional, cell-based
# [27] = Reduced DLD-1 viability, concentration-response, CellTiter-Glo luminescence (AID 1117352); assay type: functional
# [28] = CellTiter-Glo luminescence survival assay, SW480 colon tumor line, concentration-response curve, half-maximal inhibitory concentration (AID 1117338); assay type: functional
# [29] = viability loss in HEK293T cells – cell-based, ATP luminescence, dry powder, set 3, cytotoxicity control, dose response (AID 743131); assay type: functional; details: HEK293
# [30] = viability loss in HepG2 hepatoma cells – cell-based, ATP luminescence, dry powder, set 2, cytotoxicity control, dose response (AID 743129); assay type: functional
structure (smiles),measurement,setting,value
CCOC(=O)c1ccc2[nH]c3c(c2c1)CCCCC3=O,IC50,[1],> 93.1 µM (not active)
Cc1cc(C)cc(SCc2noc(C(=O)NCCN(C)C)c2C(=O)NCCN(C)C)c1,IC50,Vero [2],26.9 µM (active)
CN1CCN(C2=C(Cl)C(=O)c3ccccc3C2=O)CC1,IC50,Phospholipase A2,58.9 µM (inactive)
same,AC50,[3],108 nM (active)
same,IC50,Cysteine protease ATG4B,2.02 µM (active)
same,AC50,[4],1.03 µM (active)
same,CC50,Vero [5],11.8 µM (active)
same,IC50,Genome polyprotein,6.33 µM (active)
same,AC50,[6],> 100 µM (inactive)
same,CC50,[7],6.22 µM (active)
same,IC50,[8],581 nM (active)
same,IC50,[9],> 100 µM (active)
COc1cc2nc(-c3cccc(F)c3)cc(O)c2cc1OC,EC50,[10],5.44 µM (active)
O=c1cc(-c2cccc(O)c2)oc2c(O)c(O)ccc12,AC50,Cytochrome P450 2C19,15.8 µM (inconclusive)
Nc1c2c(nc3c1CCC3)CCCC2,IC50,[11],11.7 µM (inactive)
same,IC50,cells [12],> 33.3 µM (inactive)
CCN(CC)S(=O)(=O)c1ccc(OC)c(NC(=O)COc2ccc3c(C)cc(=O)oc3c2)c1,IC50,[13],2.14 µM (active)
same,IC50,[14],2.35 µM (active)
CC(=O)CCSc1ncnc2sc(-c3ccccc3)cc12,IC50,[15],> 100 µM (active)
Cc1cc(NO)nc(-c2ccc(Br)cc2)n1,EC50,[16],22.8 µM (active)
same,IC50,[17],728 nM (active)
same,EC50,[18],405 nM (active)
same,EC50,H4,40.2 µM (active)
NCC(=O)Nc1ccc(-n2nc(C(F)(F)F)cc2-c2ccc3c(ccc4ccccc43)c2)cc1 [AR-12],AC50,cells [19],4.39 µM (active)
same,AC50,[20],18.3 µM (active)
same,AC50,[21],8.29 µM (active)
CCc1cccc(N(C)C(=N)Nc2cccc3ccccc23)c1 [APTIGANEL HYDROCHLORIDE],IC50,[22],> 20 µM (inactive)
same,IC50,[23],> 20 µM (inactive)
same,IC50,[24],> 20 µM (inactive)
same,IC50,[25],> 20 µM (inactive)
same,IC50,[26],> 20 µM (inactive)
same,IC50,[27],> 20 µM (inactive)
same,IC50,[28],> 20 µM (inactive)
CCOC(=O)c1c(NC(=O)CN2CCN(C)CC2)sc(C)c1-c1ccc(C)cc1,AC50,[29],1.74 µM (active)
same,AC50,[30],16.7 µM (active)
